In brackets after ≈: the same amount, converted by molar mass. Ends that are not written are not given here. Peptide text beside a SMILES is read from it. * marks the point of attachment. X1 = CC(=O)N[C@H]1C(*)O[C@H](CO)[C@@H](O)[C@@H]1O; X2 = O=C(CCOCCOCCOCCOCCOCCOCCO)*
Tests used:
A. baumannii 5015 [1] = assay: Biofilm eradication assay (MBEC), preformed biofilms; assay type: cell-based; settings: preformed A. baumannii 5015 biofilm, LB + 1% glucose; viable biofilm cell count; three independent experiments
Source text: (§2) A bacterial suspension of 1 × 10^7 CFU mL^−1 was used to establish biofilms prior to treatment with the peptides. Appropriate nutrient media for optimal biofilm formation were used, including TSB supplemented with 1% glucose for MRSA SAP0017, BM2 glucose for P. aeruginosa PA14, and LB media supplemented with 1% glucose for E. coli ATTC489 and A. baumannii 5015. In the crystal violet-based assay, untreated bacterial culture and sterile media were used as positive and negative controls, where the % of biofilm biomass was considered 100 and 0%, respectively. The % of biomass in the treated samples was determined relative to the positive and negative controls. A biofilm eradication assay [17] was also performed, for which the residual viable biofilm cell count (CFU mL^−1) was determined. Experiments were conducted in triplicate, in three independent experiments, and average values were presented with ± standard deviations.

P. aeruginosa PA14 [2] = assay: as above; assay type: cell-based; settings: BM2 glucose, viable biofilm cell count, three independent experiments
Source text: as §2

E. coli ATTC489 [3] = assay: MIC, liquid broth inhibition assay; assay type: cell-based; settings: planktonic E. coli ATTC489; MHB, ~1 × 10^6 CFU mL^−1, ~18 h, OD600; modal values of three independent experiments
Protocol: (§1) The MIC was conducted using the liquid broth inhibition assay as previously described. MHB was used as a medium for bacterial growth, and bacteria (either MRSA SAP0017, P. aeruginosa PA14, E. coli ATTC489 or A. baumannii 5015) were suspended at ∼1 × 10^6 CFU mL^−1. The peptide conjugates were incubated with the bacterial cultures at various concentrations for ~18 h prior determination of bacterial growth optical density at 600 nm (OD600). The MIC was defined as the lowest concentration that led to no growth in the wells. All values are modal values of three independent experiments.

A. baumannii 5015 [4] = assay: MIC, liquid broth inhibition assay; assay type: cell-based; settings: planktonic A. baumannii 5015; MHB, ~1 × 10^6 CFU mL^−1, ~18 h, OD600; modal values of three independent experiments
Protocol: as §1

S. aureus MRSA0017 [5] = assay: MIC, liquid broth inhibition assay; assay type: cell-based; settings: planktonic S. aureus MRSA0017; MHB, ~1 × 10^6 CFU mL^−1, ~18 h, OD600; modal values of three independent experiments
Protocol: as §1

P. aeruginosa PA14 [6] = assay: MIC, liquid broth inhibition assay; assay type: cell-based; settings: planktonic P. aeruginosa PA14; MHB, ~1 × 10^6 CFU mL^−1, ~18 h, OD600; modal values of three independent experiments
Protocol: as §1

S. aureus MRSA0017 [7] = assay: Biofilm eradication assay (MBEC), preformed biofilms; assay type: cell-based; settings: TSB + 1% glucose, viable biofilm cell count, three independent experiments
Source text: as §2

E. coli ATTC489 [8] = assay: as above; assay type: cell-based; settings: LB + 1% glucose, viable biofilm cell count, three independent experiments
Source text: as §2

[9] = test system: MRSA SAP0017, P. aeruginosa PA14, E. coli ATTC489, A. baumannii 5015; assay: MIC, summary over the strains tested; assay type: cell-based; settings: range over the four strains of Table 2
Protocol: as §1

IL-1RA = assay: Immunomodulatory assay, ELISA of PBMC supernatant; assay type: cell-based, human; settings: PBMCs
Protocol: (§3) To evaluate the capacity of the conjugates to modulate the immune system, suspended PBMCs (a final density of 1 × 10^5 cells well^−1) were treated with the conjugates at 8 μg mL^−1 in the presence or absence of 20 ng mL^−1 P. aeruginosa LPS, incubated for 24 h, centrifuged, and then the supernatants were collected to quantifying the levels of monocyte chemoattractant protein 1 (MCP-1), the tumor necrosis factor-alpha (TNFα), and interleukins (IL) IL-1β, IL-10, and the anti-inflammatory IL-1 receptor antagonist (IL-1RA) using specific ELISA assays (ELISA kits, eBioscience, Carlsbad, CA, USA). All experiments were conducted in triplicate in three independent experiments and average values were presented.

human PBMCs = assay: Immunomodulatory assay, chemokine and cytokine expression overall; assay type: cell-based
Protocol: as §3

IL-1β = assay: Immunomodulatory assay, ELISA of PBMC supernatant; assay type: cell-based, human; settings: PBMCs, peptide 8 μg mL^−1 co-treated with 20 ng mL^−1 P. aeruginosa LPS, 24 h
Protocol: as §3

IL-10 = assay: Immunomodulatory assay, ELISA of PBMC supernatant; assay type: cell-based, human; settings: PBMCs, peptide 8 μg mL^−1 co-treated with 20 ng mL^−1 P. aeruginosa LPS, 24 h
Protocol: as §3

[10] = Aggregation with PBMCs in tissue culture, microscopy; assay type: physicochemical, human; settings: 32 μg mL^−1, PBMCs in RPMI, 4 h, 37 °C, 5% CO2, microscopy; triplicate in three independent experiments
Protocol: Furthermore, isolated peripheral blood mononuclear cells (PBMCs) seeded in 96-well flat-bottom tissue culture plates (Corning Inc., Corning, NY, USA) at a concentration of 2 × 10^6 in RMPI media were treated with the two conjugates at a final concentration of 32 μg mL^−1, incubated for 4 h at 37 °C in 5% CO2, and visualized on a Nikon Eclipse TS100 microscope. Experiments were performed in triplicate in three independent experiments.

MCP-1 = assay: Immunomodulatory assay, ELISA of PBMC supernatant; assay type: cell-based, human; settings: PBMCs, peptide 8 μg mL^−1 co-treated with 20 ng mL^−1 P. aeruginosa LPS, 24 h
Protocol: as §3

S. aureus MRSA0017 [11] = assay: Biofilm biomass, crystal violet staining assay; assay type: cell-based; settings: at 64 µg mL^−1, relative to untreated samples
Source text: as §2

[12] = Aggregation assay (turbidity) in sodium citrate or phosphate; assay type: physicochemical; settings: sodium citrate and sodium phosphate, 0.1−1000 mM; OD600 relative to sterile water
Protocol: Solutions of IDR1018 peptide and the conjugates were tested for aggregation in saline (0.9% NaCl), 5% dextrose, and 10% RPMI tissue culture medium at 1 mg mL^−1. The solutions were placed in 96 well plates and sterile water was used as a negative control. The turbidity was determined for each sample as described in earlier reports. Similarly, the conjugates were screened for aggregation in the presence of sodium salts of polyatomic anions (citrate or phosphate) at various strengths (0.1−1000 mM). The % of aggregates was assessed relative to the OD600 of sterile water.

[13] = at 128 µg mL^−1; LDH release, 24 h, 37 °C, RPMI + 10% FBS; 1% Triton X-100 = 100%
Protocol: The cytotoxicity of the conjugates was assessed in vitro against PBMCs as described earlier using the lactate dehydrogenase (LDH)-based assay [35]. Blood samples were collected from healthy donors with ethics approval and PBMCs were isolated following our previously reported protocol [35]. The cells were resuspended in RPMI medium supplemented with 10% FBS and seeded in tissue culture-treated plates at a final density of 1 × 10^5 cells well^−1. Subsequently, the cells were treated with the conjugates or IDR1018 and incubated for 24 h at 37 °C in 5% CO2, to determine the LDH release. Triton X-100 (1% final concentration) was used as a toxic (positive) control.

| Molecule | MBEC (minimal biofilm eradication concentration) (A. baumannii 5015 [1]) [µg/mL] | MBEC (minimal biofilm eradication concentration) (P. aeruginosa PA14 [2]) [µg/mL] | MIC (E. coli ATTC489 [3]) [µg/mL] | MIC (A. baumannii 5015 [4]) [µg/mL] | MIC (S. aureus MRSA0017 [5]) [µg/mL] | MIC (P. aeruginosa PA14 [6]) [µg/mL] | MBEC (minimal biofilm eradication concentration) (S. aureus MRSA0017 [7]) [µg/mL] | MBEC (minimal biofilm eradication concentration) (E. coli ATTC489 [8]) [µg/mL] | MICs, range based on the strains tested [9] [µg/mL] | level of IL-1RA induced (IL-1RA; peptide 8 μg mL^−1, 24 h, absence of LPS, mean of three independent experiments) [ng/mL] | IL-1RA induction level with LPS stimulation (IL-1RA; peptide 8 μg mL^−1 co-treated with 20 ng mL^−1 P. aeruginosa LPS, 24 h) | boost of the level of MCP1 and IL-1RA relative to unmodified IDR1018 (human PBMCs; peptide 8 μg mL^−1, absence of LPS) | ability to modulate chemokine and cytokine expression (human PBMCs; peptide 8 μg mL^−1, absence of an LPS stimulant) | expression of IL-1β with LPS stimulation (IL-1β) | IL-10 induction level with LPS stimulation (IL-10) | aggregation when incubated with PBMCs in tissue culture [10] | MCP1 induction level with LPS stimulation (MCP-1) | biomass reduction (S. aureus MRSA0017 [11]) [%] | turbidity in sodium salts of polyatomic anions [12] | cytotoxicity to PBMCs [13] |
| --- | --- | --- | --- | --- | --- | --- | --- | --- | --- | --- | --- | --- | --- | --- | --- | --- | --- | --- | --- | --- |
| CC[C@H](C)[C@H](NC(=O)[C@H](CCCNC(=N)N)NC(=O)[C@@H](NC(=O)[C@H](C)NC(=O)[C@@H](NC(=O)[C@@H](NC(=O)[C@H](CC(C)C)NC(=O)[C@H](CCCNC(=N)N)NC(=O)[C@@H](NC(=O)CCOCCOCCOCCOCCOCCOCCO)C(C)C)[C@@H](C)CC)C(C)C)C(C)C)C(=O)N[C@@H](Cc1c[nH]c2ccccc12)C(=O)N[C@@H](CCCNC(=N)N)C(=O)N[C@@H](CCCNC(=N)N)C(N)=O [PEG6-IDR1018] (X2-VRLIVAVRIWRR-NH2) | 128 | 256 | 64 (≈ 34.2 µM) | 64 (≈ 34.2 µM) | 32 (≈ 17.1 µM) | 64 (≈ 34.2 µM) | 64 | 128 | 32 to 64 | – | – | – | – | – | – | – | – | – | – | – |
| CC[C@H](C)[C@H](NC(=O)[C@H](CCCNC(=N)N)NC(=O)[C@@H](NC(=O)[C@H](C)NC(=O)[C@@H](NC(=O)[C@@H](NC(=O)[C@H](CC(C)C)NC(=O)[C@H](CCCNC(=N)N)NC(=O)[C@@H](NC(=O)[C@@H](N)[C@@H](C)OC1O[C@H](CO)[C@@H](O)[C@H](O)[C@H]1NC(C)=O)C(C)C)[C@@H](C)CC)C(C)C)C(C)C)C(=O)N[C@@H](Cc1c[nH]c2ccccc12)C(=O)N[C@@H](CCCNC(=N)N)C(=O)N[C@@H](CCCNC(=N)N)C(N)=O (stereo partly drawn) [Glc-IDR1018] (H-T(X1)VRLIVAVRIWRR-NH2) | 256 | 256 | 64 (≈ 34.8 µM) | 64 (≈ 34.8 µM) | 64 (≈ 34.8 µM) | 128 (≈ 69.6 µM) | 64 | 128 | 64 to 128 | 0.8 | substantially higher expression values | 2–5 fold | significant increase in the expression of the immune mediators relative to unmodified IDR1018 | significantly suppressed | substantially higher expression values | neither peptide conjugate, PEG6-IDR1018, and Glc-IDR1018 showed any obvious sign of aggregation | substantially higher expression values | ≥ 90 | no turbidity increase | – |
| VRLIVAVRIWRR-NH2 [IDR1018] | 16 | 16 | 16 | 16 | 16 | 16 | – | 16 | – | – | – | – | – | – | – | – | – | – | – | up to 20% |
